Experimental data reported in US20070166547A1, “Use of a layer consisting of hydrophobic linear, or two-dimensional polycyclic aromatics as a barrier layer or an encapsulation and electric components constructed with a layer of this type and comprising organic polymers” (priority 2003, published 2007).
Where two headings read alike, the source gives them in different places.

Tests used:
[1] = test system: metabolism of nitrogen oxide; test: Morphine abstinence model: nitrites and nitrates NOX− in blood plasma, liver and brain; type: in vivo, rats Wistar; conditions: for Nitrites in blood plasma, Control + Compound / Nitrites in brain, Cortex of cerebrum, Control + Compound / Nitrites in brain, Hypothalamus, Control + Compound / Nitrites in brain, Mesencephalon, Control + Compound / Nitrites in liver, Control + Compound: compound alone 20.0 mg/kg intramuscularly; for Nitrites in blood plasma, Control + Morphine + compound / Nitrites in brain, Cortex of cerebrum, Control + Morphine + compound / Nitrites in brain, Hypothalamus, Control + Morphine + compound / Nitrites in brain, Mesencephalon, Control + Morphine + compound / Nitrites in liver, Control + Morphine + compound: morphinized rats then compound 20.0 mg/kg intramuscularly
Method: The experiments were carried out on rats in series of 7 animals on each compound according to the invention. Non-morphinized animal with not administered with compounds according to the invention were used as a control group. […] Then the rats were decapitated, the blood from somnolent arteries was collected in test tubes with solution EDTA as an anticoagulant, centrifuged at 1500 g for 15 minutes at 4° C.
To estimate the intensity of metabolism of nitrogen oxide in rats, quantitative determination of stable metabolites of nitrogen oxide—nitrites and nitrates NOX^− in the blood plasma, supernatanates of the liver and thymus gland, a study was conducted by a spectrometric method, and in the brain supernatanates by a […] method.
The spectrometric method is based the reaction of nitrites with the Griss reagent (a mixture of 2% solution of sulfanilamide and 0.2% N-(1-naphthyl)ethylene diamine. At the first step the nitrite reacts with sulfanilamide with formation of diazonium salt, and then with the second component to form azo dye with an adsorption maximum at 540 nm. For reduction of nitrates into nitrites, a fermentative method was used with bacterial reductase nitrate (Grisham M. B. et al., 1995). The samples of plasma and supernatant of the liver deproteinizated at 100° C. for 5 minutes incubated for 30 minutes at 37° C. in 50.0 mM of HEPES pH 7.4 in the presence of 0.2 unit/ml of Aspergillus reductase nitrate, 5.0 mkM of FAD and 0.1 mM of NAD-Ph. At the end of the reaction lactate dehydrogenase and pyruvate were added for isolation of NAD-Ph interfering with the Griss reaction. Then the Griss reagent was added and after 10-minute incubation the light absorption of the samples was measured at 540 nm. To amount of NOX^− was calculated using sodium nitrate as a standard.
The fluorometric method is based on calculation of the nitrite level by the intensity fluorescence of 2,3-diaminonaphthotriazole, a product of reaction of 2,3-diaminonaphthalene (DAN) and nitrite in an acidic medium (Misko T. R., Schilling R. J., Salvemini D. et al. “A fluorometric assay for the measurement of nitrite of biological samples”. Anal. Biochem., 1993, v. 214, p. 11-16). The brain supernatants deproteinizated at 100° C. were placed in a nitrite regenerating system containing 0.125 unit/ml of nitrate reductases, 25 mkM NADPh and 25 mkM FAD prepared in a 20-mM Tris-HCl buffer with pH 7.6 and incubated for 30 minutes at 37° C. The lactatedehydrogenase/pyruvate system was used for oxidation of the NADPh. Then 316 mkM of the DAN solution in 0.62 M of hydrochloric acids were added and the mixture was incubated for 10 minutes in darkness.
280 mM of NaOH were added for stabilization of the fluorescence of the formed 2,3-diaminonaphthotriazole. The fluorescence intensity was measured in the spectrofluorimeter Hitachi F-3000 at a wavelength of excitation of 365 nm and an emission of 405 nm. The concentration of NOX^− in the brain was calculated by means of a standard solution of sodium nitrate.

[2] = rat, in vivo
Method: (§1) The experiments were conducted on inbred rats. The experimental animals were selected in groups by a method of random sampling taking into account the body mass as a determining index; 24 males or 24 females for one preparation from compounds 2, 15, 23, 34, 37 investigated in one dose.
(§2) Two doses of preparations used in the experiments: 50 mg/kg and 500 mg/kg. Before the administration, the suppositories were softened by heating in a glass water bath at a temperature of 38-39° C., the soft mass was collected in tuberculin syringe in a volume of 1 ml, a needle with oliva was attached to the syringe, and the preparatory mass was introduced into the rectum of the animal for a depth of 1.5-2.0 cm. The animals of the control group were administered with sterile medical liquid paraffin in a volume corresponding to the volume of the investigated suppository. A complete course of administration of drugs to the animals was two months. A complex of laboratory diagnostic investigations was carried out one month after the beginning of the administration of the preparation to the animal—in a middle of the course (8 animals), two months after ending the course (8 animals) and three months after ending the recovery period of one month (8 animals). The mass of the body of the rats in the first month of administration of the preparation was determined weekly, and then once in two weeks. On the basis of the dynamics of an index of the mass of the animal body, the volume of preparation being administered was corrected taking into account the test dose.

[3] = Chronic toxicity, rectal suppositories: indexes of peripheral blood; conditions: male rats; for Basophiles / Juveniles: 1 month/2 months (one value given)
Method: as §1, §2

[4] = suppositories 50 mg/kg, 1 month
[5] = suppositories 50 mg/kg, 2 months
[6] = suppositories 500 mg/kg, 1 month
[7] = suppositories 500 mg/kg, 2 months

With O=c1[nH][nH]c(=O)c2c(Br)ncnc12.[K] [Compound 37, potassium salt of 4-bromine-pyrimido[4,5-D]-6H-pyridazine-5,8-dione] the “Nitrites in blood plasma, Control + Compound” value [1] was 16.13 ± 1.80 mkmol/ml, the “Nitrites in brain, Cortex of cerebrum, Control + Compound” value [1] was 4.36 ± 0.24 nmol/mg of protein and the “Nitrites in brain, Hypothalamus, Control + Compound” value [1] was 6.79 ± 0.92 nmol/mg of protein. The “Nitrites in brain, Mesencephalon, Control + Compound” value [1] was 6.84 ± 0.56 nmol/mg of protein, the “Nitrites in liver, Control + Compound” value [1] was 0.262 ± 0.018 nmol/mg of protein and the “Nitrites in blood plasma, Control + Morphine + compound” value [1] was 15.33 ± 0.87 mkmol/ml. The “Nitrites in brain, Cortex of cerebrum, Control + Morphine + compound” value [1] was 4.77 ± 0.28 nmol/mg of protein, the “Nitrites in brain, Hypothalamus, Control + Morphine + compound” value [1] was 6.52 ± 0.83 nmol/mg of protein and the “Nitrites in brain, Mesencephalon, Control + Morphine + compound” value [1] was 5.63 ± 0.37 nmol/mg of protein. The “Nitrites in liver, Control + Morphine + compound” value [1] was 0.274 ± 0.01 nmol/mg of protein, the “Bilirubin (index of urine)” value ([2]; 50 mg/kg) was less than 5 Mkmol/l and the “Glucose (index of urine)” value ([2]; 50 mg/kg) was less than 5 mmol/L. The “Ketone bodies (index of urine)” value ([2]; 50 mg/kg) was less than 1 mmol/L, the “Potassium (index of urine)” value ([2]; 50 mg/kg) was 6.12 ± 1.4 g/L and the “Protein (index of urine)” value ([2]; 50 mg/kg) was 0.70 ± 0.19 g/L. For the same compound, the “Sodium (index of urine)” value ([2]; 50 mg/kg) was 1.4 ± 0.2 g/L, the “Urea (index of urine)” value ([2]; 50 mg/kg) was 427 ± 137 mmol/L and the “Urobilinogen (index of urine)” value ([2]; 50 mg/kg) was less than 15 Mkmol/l. The “pH (index of urine)” value ([2]; 50 mg/kg) was 6.4 ± 0.4, the “Bilirubin (index of urine)” value ([2]; 500 mg/kg) was less than 5 Mkmol/l and the “Glucose (index of urine)” value ([2]; 500 mg/kg) was less than 5 mmol/L. The “Ketone bodies (index of urine)” value ([2]; 500 mg/kg) was less than 1 mmol/L, the “Potassium (index of urine)” value ([2]; 500 mg/kg) was 6.44 ± 1.3 g/L and the “Protein (index of urine)” value ([2]; 500 mg/kg) was 0.72 ± 0.14 g/L. For the same compound, the “Sodium (index of urine)” value ([2]; 500 mg/kg) was 0.88 ± 0.4 g/L, the “Urea (index of urine)” value ([2]; 500 mg/kg) was 489 ± 152 mmol/L and the “Urobilinogen (index of urine)” value ([2]; 500 mg/kg) was less than 15 Mkmol/l. The “pH (index of urine)” value ([2]; 500 mg/kg) was 6.2 ± 0.3.

For O=c1[nH][nH]c(=O)c2nccnc12.[Li] [Compound 25, lithium salt of pyrazine[2,3-d]-6H-pyridazine-5,8-dione], the “Nitrites in blood plasma, Control + Compound” value [1] was 17.10 ± 2.05 mkmol/ml, the “Nitrites in brain, Cortex of cerebrum, Control + Compound” value [1] was 4.47 ± 0.43 nmol/mg of protein and the “Nitrites in brain, Hypothalamus, Control + Compound” value [1] was 6.87 ± 0.80 nmol/mg of protein. For the same compound, the “Nitrites in brain, Mesencephalon, Control + Compound” value [1] was 6.98 ± 1.02 nmol/mg of protein, the “Nitrites in liver, Control + Compound” value [1] was 0.307 ± 0.012 nmol/mg of protein and the “Nitrites in blood plasma, Control + Morphine + compound” value [1] was 16.78 ± 2.11 mkmol/ml. The “Nitrites in brain, Cortex of cerebrum, Control + Morphine + compound” value [1] was 4.91 ± 0.32 nmol/mg of protein, the “Nitrites in brain, Hypothalamus, Control + Morphine + compound” value [1] was 6.67 ± 0.79 nmol/mg of protein and the “Nitrites in brain, Mesencephalon, Control + Morphine + compound” value [1] was 5.91 ± 0.74 nmol/mg of protein. The “Nitrites in liver, Control + Morphine + compound” value [1] was 0.287 ± 0.01 nmol/mg of protein.

For O=c1[nH]n([C@@H]2O[C@H](CO)[C@@H](O)[C@H]2O)c(=O)c2nc(O)cnc12.[Na].[Na] [Compound 23, disodium salt of 2-hydroxy-7-(β-D-ribofuranosile)pyrazine[2,3-Cl]-6H-pyridazine-5,8-dione], the “Average volume of erythrocytes” value [3, 4] was 82.7 ± 1.6 Mkm^3, the “Coagulation, time” value [3, 4] was 150 ± 15 s and the Eosinophiles [3, 4] was 3.6 ± 0.5%. The Erythrocytes [3, 4] was 5.7 ± 0.1 mln/mm^3, the Haematocrite [3, 4] was 47.7 ± 1.2% and the Hemoglobin [3, 4] was 10.7 ± 0.1 mmol/L. The Leukocyte [3, 4] was 15.5 ± 1.1 thousand/mm^3, the REE [3, 4] was 1.7 ± 0.8 mm/h and the Reticulocytes [3, 4] was 2.7 ± 0.3%. The Stab neutrophil [3, 4] was 1.1 ± 0.5%, the Thrombocytes [3, 4] was 659 ± 18 and the Basophiles ([3]; suppositories 50 mg/kg) was 0%. The Juveniles ([3]; suppositories 50 mg/kg) was 0%, the “Average volume of erythrocytes” value [3, 5] was 77.5 ± 1.7 Mkm^3 and the “Coagulation, time” value [3, 5] was 313 ± 17 s. It also gave an Eosinophiles [3, 5] of 4.0 ± 0.7%, an Erythrocytes [3, 5] of 6.0 ± 0.2 mln/mm^3 and a Haematocrite [3, 5] of 46.5 ± 1.3%. For the same compound, the Hemoglobin [3, 5] was 11.0 ± 0.1 mmol/L, the Leukocyte [3, 5] was 17.6 ± 1.2 thousand/mm^3 and the REE [3, 5] was 1.5 ± 0.1 mm/h. The Reticulocytes [3, 5] was 2.8 ± 0.1%, the Stab neutrophil [3, 5] was 1.6 ± 0.2% and the Thrombocytes [3, 5] was 586 ± 28. For the same compound, the “Average volume of erythrocytes” value [3, 6] was 83.5 ± 1.7 Mkm^3, the “Coagulation, time” value [3, 6] was 156 ± 11 s and the Eosinophiles [3, 6] was 3.3 ± 0.7%. The Erythrocytes [3, 6] was 5.7 ± 0.2 mln/mm^3, the Haematocrite [3, 6] was 47.9 ± 1.1% and the Hemoglobin [3, 6] was 10.7 ± 0.2 mmol/L. For the same compound, the Leukocyte [3, 6] was 16.4 ± 1.1 thousand/mm^3, the REE [3, 6] was 2.0 ± 0.3 mm/h and the Reticulocytes [3, 6] was 3.1 ± 0.1%. It also gave a Stab neutrophil [3, 6] of 1.0 ± 0.3%, a Thrombocytes [3, 6] of 678 ± 18 and a Basophiles ([3]; suppositories 500 mg/kg) of 0%. For the same compound, the Juveniles ([3]; suppositories 500 mg/kg) was 0%, the “Average volume of erythrocytes” value [3, 7] was 82.1 ± 1.4 Mkm^3 and the “Coagulation, time” value [3, 7] was 3171 ± 12 s. For the same compound, the Eosinophiles [3, 7] was 3.8 ± 1.3%, the Erythrocytes [3, 7] was 6.4 ± 0.2 mln/mm^3 and the Haematocrite [3, 7] was 49.4 ± 1.9%. It also gave a Hemoglobin [3, 7] of 12.3 ± 0.3 mmol/L, a Leukocyte [3, 7] of 20.1 ± 1.7 thousand/mm^3 and an REE [3, 7] of 1.7 ± 0.3 mm/h. It also gave a Reticulocytes [3, 7] of 3.4 ± 0.1%, a Stab neutrophil [3, 7] of 1.6 ± 0.2% and a Thrombocytes [3, 7] of 628 ± 23.

In the case of Nc1cccc2c(=O)[nH][nH]c(=O)c12.[Na] [Compound 15, sodium salt of 5-amino-benzo[d]-3H-pyridazine-1,4-dione], the “Nitrites in blood plasma, Control + Compound” value [1] is reported as 14.39 ± 0.84 mkmol/ml, the “Nitrites in brain, Cortex of cerebrum, Control + Compound” value [1] is reported as 4.31 ± 0.37 nmol/mg of protein and the “Nitrites in brain, Hypothalamus, Control + Compound” value [1] is reported as 6.77 ± 0.83 nmol/mg of protein. For the same compound, the “Nitrites in brain, Mesencephalon, Control + Compound” value [1] was 6.65 ± 0.70 nmol/mg of protein, the “Nitrites in liver, Control + Compound” value [1] was 0.259 ± 0.019 nmol/mg of protein and the “Nitrites in blood plasma, Control + Morphine + compound” value [1] was 13.91 ± 1.91 mkmol/ml. The “Nitrites in brain, Cortex of cerebrum, Control + Morphine + compound” value [1] was 4.72 ± 0.37 nmol/mg of protein, the “Nitrites in brain, Hypothalamus, Control + Morphine + compound” value [1] was 6.57 ± 0.88 nmol/mg of protein and the “Nitrites in brain, Mesencephalon, Control + Morphine + compound” value [1] was 5.50 ± 0.43 nmol/mg of protein. The “Nitrites in liver, Control + Morphine + compound” value [1] was 0.285 ± 0.02 nmol/mg of protein, the “Bilirubin (index of urine)” value ([2]; 50 mg/kg) was less than 5 Mkmol/l and the “Glucose (index of urine)” value ([2]; 50 mg/kg) was less than 6 mmol/L. The “Ketone bodies (index of urine)” value ([2]; 50 mg/kg) was less than 1 mmol/L, the “Potassium (index of urine)” value ([2]; 50 mg/kg) was 5.28 ± 1.5 g/L and the “Protein (index of urine)” value ([2]; 50 mg/kg) was 0.71 ± 0.274 g/L. The “Sodium (index of urine)” value ([2]; 50 mg/kg) was 1.2 ± 0.4 g/L, the “Urea (index of urine)” value ([2]; 50 mg/kg) was 413 ± 128 mmol/L and the “Urobilinogen (index of urine)” value ([2]; 50 mg/kg) was less than 17 Mkmol/l. For the same compound, the “pH (index of urine)” value ([2]; 50 mg/kg) was 6.3 ± 0.4, the “Bilirubin (index of urine)” value ([2]; 500 mg/kg) was less than 5 Mkmol/l and the “Glucose (index of urine)” value ([2]; 500 mg/kg) was less than 6 mmol/L. For the same compound, the “Ketone bodies (index of urine)” value ([2]; 500 mg/kg) was less than 1 mmol/L, the “Potassium (index of urine)” value ([2]; 500 mg/kg) was 6.13 ± 1.6 g/L and the “Protein (index of urine)” value ([2]; 500 mg/kg) was 0.87 ± 0.24 g/L. The “Sodium (index of urine)” value ([2]; 500 mg/kg) was 0.64 ± 0.4 g/L, the “Urea (index of urine)” value ([2]; 500 mg/kg) was 485 ± 131 mmol/L and the “Urobilinogen (index of urine)” value ([2]; 500 mg/kg) was less than 17 Mkmol/l. The “pH (index of urine)” value ([2]; 500 mg/kg) was 6.2 ± 0.3.
